From ChEMBL document CHEMBL1155271, “Synthesis, crystal structures and antibacterial activity studies of aza-derivatives of phytoalexin from cotton plant--gossypol” (2009)
Values after ≈ are worked out from the molar mass of the structure shown. Active and inactive are the calls of the source. The rule behind the calls is not given here.

Columns and labels:
Format in all cases: functional
[1] = system: Staphylococcus aureus; test: Antimicrobial activity against Methicillin susceptible Staphylococcus aureus 213/7 by twofold dilution technique
[2] = system: Staphylococcus aureus; test: Antimicrobial activity against Staphylococcus aureus ATCC 25923 after 18 hrs by twofold dilution technique; conditions: ATCC 25923, 18 h
[3] = system: Staphylococcus aureus; test: Antimicrobial activity against methicillin-resistant Staphylococcus aureus 218/7 by twofold dilution technique
[4] = system: Staphylococcus aureus; test: Antimicrobial activity against Methicillin susceptible Staphylococcus aureus 239/7 by twofold dilution technique
[5] = system: Staphylococcus aureus; test: Antimicrobial activity against Methicillin susceptible Staphylococcus aureus 207/7 by twofold dilution technique
[6] = system: Staphylococcus epidermidis; test: Antimicrobial activity against Staphylococcus epidermidis ATCC 12228 at 400 ug after 18 hrs by disk diffusion method; conditions: ATCC 12228, 18 h, read-out: DIZ
[7] = system: Staphylococcus aureus; test: Antimicrobial activity against Methicillin susceptible Staphylococcus aureus 237/7 by twofold dilution technique
[8] = system: Staphylococcus aureus; test: Antimicrobial activity against methicillin-resistant Staphylococcus aureus 140/6 by twofold dilution technique
[9] = system: Staphylococcus aureus; test: Antimicrobial activity against Methicillin susceptible Staphylococcus aureus 212/7 by twofold dilution technique
[10] = system: Staphylococcus aureus; test: Antimicrobial activity against Staphylococcus aureus ATCC 29213 at 400 ug after 18 hrs by disk diffusion method; conditions: ATCC 29213, 18 h, read-out: DIZ
[11] = system: Enterococcus hirae; test: Antimicrobial activity against Enterococcus hirae ATCC 10541 at 400 ug after 18 hrs by disk diffusion method; conditions: ATCC 10541, 18 h, read-out: DIZ
[12] = system: Staphylococcus aureus; test: Antimicrobial activity against Staphylococcus aureus ATCC 6538 at 400 ug after 18 hrs by disk diffusion method; conditions: ATCC 6538, 18 h, read-out: DIZ
[13] = system: Micrococcus luteus; test: Antimicrobial activity against Micrococcus luteus ATCC 10240 at 400 ug after 18 hrs by disk diffusion method; conditions: ATCC 10240, 18 h, read-out: DIZ
[14] = system: Staphylococcus aureus; test: Antimicrobial activity against methicillin-resistant Staphylococcus aureus 141/6 by twofold dilution technique
[15] = system: Staphylococcus aureus; test: Antimicrobial activity against methicillin-resistant Staphylococcus aureus 236/7 by twofold dilution technique
[16] = system: Staphylococcus aureus; test: Antimicrobial activity against methicillin-resistant Staphylococcus aureus 146/6 by twofold dilution technique
[17] = system: Micrococcus luteus; test: Antimicrobial activity against Micrococcus luteus ATCC 10240 by twofold dilution technique
[18] = system: Staphylococcus aureus; test: Antimicrobial activity against Staphylococcus aureus NCTC 4163 after 18 hrs by twofold dilution technique; conditions: NCTC 4163, 18 h
[19] = system: Staphylococcus aureus; test: Antimicrobial activity against Methicillin susceptible Staphylococcus aureus 243/7 by twofold dilution technique
[20] = system: Staphylococcus aureus; test: Antimicrobial activity against Staphylococcus aureus ATCC 25923 at 400 ug after 18 hrs by disk diffusion method; conditions: ATCC 25923, 18 h, read-out: DIZ
[21] = system: Enterococcus hirae; test: Antimicrobial activity against Enterococcus hirae ATCC 10541 after 18 hrs by twofold dilution technique; conditions: ATCC 10541, 18 h
[22] = system: Bacillus cereus; test: Antimicrobial activity against Bacillus cereus ATCC 11778 at 400 ug after 18 hrs by disk diffusion method; conditions: ATCC 11778, 18 h, read-out: DIZ
[23] = system: Staphylococcus aureus; test: Antimicrobial activity against Staphylococcus aureus ATCC 29213 after 18 hrs by twofold dilution technique; conditions: ATCC 29213, 18 h
[24] = system: Staphylococcus aureus; test: Antimicrobial activity against methicillin-resistant Staphylococcus aureus 136/6 by twofold dilution technique
[25] = system: Staphylococcus epidermidis; test: Antimicrobial activity against Staphylococcus epidermidis ATCC 12228 by twofold dilution technique
[26] = system: Bacillus subtilis; test: Antimicrobial activity against Bacillus subtilis ATCC 6633 at 400 ug after 18 hrs by disk diffusion method; conditions: ATCC 6633, 18 h, read-out: DIZ
[27] = system: Staphylococcus aureus; test: Antimicrobial activity against methicillin-resistant Staphylococcus aureus 144/6 by twofold dilution technique
[28] = system: Staphylococcus aureus; test: Antimicrobial activity against methicillin-resistant Staphylococcus aureus 143/6 by twofold dilution technique
[29] = system: Staphylococcus aureus; test: Antimicrobial activity against methicillin-resistant Staphylococcus aureus 200/7 by twofold dilution technique
[30] = system: Micrococcus luteus; test: Antimicrobial activity against Micrococcus luteus ATCC 9341 after 18 hrs by twofold dilution technique; conditions: ATCC 9341, 18 h
[31] = system: Bacillus cereus; test: Antimicrobial activity against Bacillus cereus ATCC 11778 after 18 hrs by twofold dilution technique; conditions: ATCC 11778, 18 h
[32] = system: Staphylococcus aureus; test: Antimicrobial activity against Methicillin susceptible Staphylococcus aureus 206/7 by twofold dilution technique
[33] = system: Staphylococcus aureus; test: Antimicrobial activity against Staphylococcus aureus NCTC 4163 at 400 ug after 18 hrs by disk diffusion method; conditions: NCTC 4163, 18 h, read-out: DIZ
[34] = system: Staphylococcus aureus; test: Antimicrobial activity against Methicillin susceptible Staphylococcus aureus 238/7 by twofold dilution technique
[35] = system: Micrococcus luteus; test: Antimicrobial activity against Micrococcus luteus ATCC 9341 at 400 ug after 18 hrs by disk diffusion method
[36] = system: Staphylococcus aureus; test: Antimicrobial activity against Staphylococcus aureus ATCC 6538 after 18 hrs by twofold dilution technique; conditions: ATCC 6538, 18 h
[37] = system: Staphylococcus aureus; test: Antimicrobial activity against Methicillin susceptible Staphylococcus aureus 242/7 by twofold dilution technique
[38] = system: Staphylococcus aureus; test: Antimicrobial activity against methicillin-resistant Staphylococcus aureus 217/7 by twofold dilution technique
[39] = system: Staphylococcus aureus; test: Antimicrobial activity against Methicillin susceptible Staphylococcus aureus 208/7 by twofold dilution technique
[40] = system: Bacillus subtilis; test: Antimicrobial activity against Bacillus subtilis ATCC 6633 after 18 hrs by twofold dilution technique; conditions: ATCC 6633, 18 h

Row | Compound | MIC [1] | MIC [2] | MIC [3] | MIC [4] | MIC [5] | zone of inhibition at 400 µg/disc [6] | MIC [7] | MIC [8] | MIC [9] | zone of inhibition at 400 µg/disc [10] | zone of inhibition at 400 µg/disc [11] | zone of inhibition at 400 µg/disc [12] | zone of inhibition at 400 µg/disc [13] | MIC [14] | MIC [15] | MIC [16] | MIC [17] | MIC [18] | MIC [19] | zone of inhibition at 400 µg/disc [20] | also measured
1 | Cc1cc2c(C(C)C)c(O)c(O)c(C=O)c2c(O)c1-c1c(C)cc2c(C(C)C)c(O)c(O)c(C=O)c2c1O [GOSSYPOL] | 50 µg/mL (≈ 96.4 µM) | 25 µg/mL (≈ 48.2 µM) | 50 µg/mL (≈ 96.4 µM) | 25 µg/mL (≈ 48.2 µM) | 50 µg/mL (≈ 96.4 µM) | 16 mm | 25 µg/mL (≈ 48.2 µM) | 50 µg/mL (≈ 96.4 µM) | 50 µg/mL (≈ 96.4 µM) | 15 mm | 14 mm | 14 mm | 16 mm | 50 µg/mL (≈ 96.4 µM) | 50 µg/mL (≈ 96.4 µM) | 50 µg/mL (≈ 96.4 µM) | 50 µg/mL (≈ 96.4 µM) | 50 µg/mL (≈ 96.4 µM) | 25 µg/mL (≈ 48.2 µM) | 15 mm | MIC [21]: 25 µg/mL (≈ 48.2 µM); zone of inhibition at 400 µg/disc [22]: 15 mm; MIC [23]: 12.5 µg/mL (≈ 24.1 µM); MIC [24]: 50 µg/mL (≈ 96.4 µM); MIC [25]: 100 µg/mL (≈ 193 µM); zone of inhibition at 400 µg/disc [26]: 15 mm; MIC [27]: 50 µg/mL (≈ 96.4 µM); MIC [28]: 50 µg/mL (≈ 96.4 µM); MIC [29]: 50 µg/mL (≈ 96.4 µM); MIC [30]: 25 µg/mL (≈ 48.2 µM); MIC [31]: 25 µg/mL (≈ 48.2 µM); MIC [32]: 25 µg/mL (≈ 48.2 µM); zone of inhibition at 400 µg/disc [33]: 16 mm; MIC [34]: 25 µg/mL (≈ 48.2 µM); zone of inhibition at 400 µg/disc ([35]; ATCC 9341, 18 h, read-out: DIZ): 12 mm; MIC [36]: 12.5 µg/mL (≈ 24.1 µM); MIC [37]: 12.5 µg/mL (≈ 24.1 µM); MIC [38]: 50 µg/mL (≈ 96.4 µM); MIC [39]: 50 µg/mL (≈ 96.4 µM); MIC [40]: 100 µg/mL (≈ 193 µM)
2 | CCCCOCCOCCN/C=C1\C(=O)C(O)=C(C(C)C)c2cc(C)c(-c3c(C)cc4c(c3O)/C(=C/NCCOCCOCCCC)C(=O)C(O)=C4C(C)C)c(O)c21 | 100 µg/mL (≈ 124 µM) | 100 µg/mL (≈ 124 µM) | 100 µg/mL (≈ 124 µM) | 100 µg/mL (≈ 124 µM) | 100 µg/mL (≈ 124 µM) | 12 mm | 100 µg/mL (≈ 124 µM) | 100 µg/mL (≈ 124 µM) | 200 µg/mL (≈ 248 µM) | 13 mm | 12 mm | 14 mm | 12 mm | 200 µg/mL (≈ 248 µM) | 50 µg/mL (≈ 62.1 µM) | 100 µg/mL (≈ 124 µM) | 200 µg/mL (≈ 248 µM) | 100 µg/mL (≈ 124 µM) | 100 µg/mL (≈ 124 µM) | 14 mm | MIC [21]: 100 µg/mL (≈ 124 µM); zone of inhibition at 400 µg/disc [22]: 12 mm; MIC [23]: 50 µg/mL (≈ 62.1 µM); MIC [24]: 50 µg/mL (≈ 62.1 µM); MIC [25]: > 400 µg/mL; zone of inhibition at 400 µg/disc [26]: 12 mm; MIC [27]: 200 µg/mL (≈ 248 µM); MIC [28]: 100 µg/mL (≈ 124 µM); MIC [29]: 100 µg/mL (≈ 124 µM); MIC [30]: 100 µg/mL (≈ 124 µM); MIC [31]: 100 µg/mL (≈ 124 µM); MIC [32]: 50 µg/mL (≈ 62.1 µM); zone of inhibition at 400 µg/disc [33]: 14 mm; MIC [34]: 100 µg/mL (≈ 124 µM); diameter of the inhibition zone (DIZ) [35]: inactive; MIC [36]: 50 µg/mL (≈ 62.1 µM); MIC [37]: 50 µg/mL (≈ 62.1 µM); MIC [38]: 200 µg/mL (≈ 248 µM); MIC [39]: 100 µg/mL (≈ 124 µM); MIC [40]: 200 µg/mL (≈ 248 µM)
